In one test the test system is AVEFA. The test is described as follows: Pre-emergence herbicidal action against AVEFA. Type of test: in vivo, Avena fatua. To be noted: 80 g/ha, pre-emergence. Summed up:
(§1)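 Pre-emergence soil-surface spray of formulated compound (WP or EC; 600 to 800 l/ha; 0.2% wetting agent) over seeds sown in sandy loam. After 3 weeks under greenhouse conditions, damage is estimated visually in percent against untreated plants.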

Test [1] deals with VIOTR. The test is described as follows: Pre-emergence herbicidal action against VIOTR. Type of test: in vivo, Viola tricolor. Summed up:
as §1

A further test concerns LOLRI. The test is described as follows: Pre-emergence herbicidal action against LOLRI. Type of test: in vivo, Lolium rigidum. The conditions noted are these: 80 g/ha. The gist of the method: as §1
Test [2] has as its system AMARE. The test is described as follows: Pre-emergence herbicidal action against AMARE. Type of test: in vivo, Amaranthus retroflexus. The gist of the method: as §1
Test [3] concerns SETVI. The test is described as follows: Post-emergence herbicidal action against SETVI. In kind it is in vivo, Setaria viridis. Summed up:
(§2)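 Greenhouse plants in sandy loam were sprayed at the one-leaf stage, 2 to 3 weeks after sowing, with WP or EC formulations as aqueous suspension or emulsion (600 to 800 l/ha water, 0.2% wetting agent). Visual damage was scored about 3 weeks later versus untreated controls, 0% = like control, 100% = dead.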

For test [4], the system named is AMARE. The test is described as follows: Post-emergence herbicidal action against AMARE. In kind it is in vivo, Amaranthus retroflexus. The conditions noted are these: 20 g/ha, visual assessment about 3 weeks after treatment, 100% = plants have died, 0% = like control plants. The gist of the method:
as §2

For test [5], the system named is ALOMY. The test is described as follows: Pre-emergence herbicidal action against ALOMY. In kind it is in vivo, Alopecurus myosuroides. To be noted: 80 g/ha, pre-emergence, scored visually after 3 weeks vs untreated controls (100% = plants have died, 0% = like control plants). The gist of the method:
as §1

The subject of test [6] is PHBPU. The test is described as follows: Pre-emergence herbicidal action against PHBPU. In kind it is in vivo, Pharbitis purpurea. The conditions noted are these: dosage 80 g/ha. The gist of the method: as §1
The next test has as its system ABUTH. The test is described as follows: Pre-emergence herbicidal action against ABUTH. Type of test: in vivo, Abutilon theophrasti. The gist of the method: as §1
For a further test, the system named is DIGSA. The test is described as follows: Pre-emergence herbicidal action against DIGSA. In kind it is in vivo, Digitaria sanguinalis. Summed up:
as §1

Test [7] deals with ALOMY. The test is described as follows: Post-emergence herbicidal action against ALOMY. Type of test: in vivo, Alopecurus myosuroides. To be noted: visual assessment about 3 weeks after treatment vs untreated controls. The gist of the method:
as §2

Test [8] relates to ECHCG. The test is described as follows: Post-emergence herbicidal action against ECHCG. In kind it is in vivo, Echinochloa crus-galli. The gist of the method: as §2
In test [9] the test system is MATIN. The test is described as follows: Pre-emergence herbicidal action against MATIN. In kind it is in vivo, Matricaria inodora. The gist of the method: as §1
The subject of test [10] is VERPE. The test is described as follows: Pre-emergence herbicidal action against VERPE. In kind it is in vivo, Veronica persica. To be noted: Veronica persica, 504 h, dosage 80 g/ha. The gist of the method:
as §1

For test [11], the system named is MATIN. The test is described as follows: Post-emergence herbicidal action against MATIN. In kind it is in vivo, Matricaria inodora. The conditions noted are these: dosage 20 g/ha. The gist of the method:
as §2

Test [12] deals with SETVI. The test is described as follows: Pre-emergence herbicidal action against SETVI. Type of test: in vivo, Setaria viridis. The gist of the method: as §1
For test [13], the system named is ECHCG. The test is described as follows: Pre-emergence herbicidal action against ECHCG. Type of test: in vivo, Echinochloa crus-galli. To be noted: 80 g/ha. Summed up: as §1
Test [14] relates to PHBPU. The test is described as follows: Post-emergence herbicidal action against PHBPU. Type of test: in vivo, Pharbitis purpurea. The conditions noted are these: dosage 20 g/ha. The gist of the method: as §2
The subject of test [15] is VIOTR. The test is described as follows: Post-emergence herbicidal action against VIOTR. In kind it is in vivo, Viola tricolor. The conditions noted are these: 20 g/ha. The gist of the method: as §2
Test [16] relates to VERPE. The test is described as follows: Post-emergence herbicidal action against VERPE. In kind it is in vivo, Veronica persica. The gist of the method: as §2
[17] abbreviates: 80 g/ha, scored visually after 3 weeks vs untreated controls (100% = plants have died, 0% = like control plants).

Structures are written as SMILES.

Experimental findings from patent publication US12655116B2, “Substituted isophthalic acid diamides” (Bayer Aktiengesellschaft, priority 2020, dated 2026) are described below.

As to `CCCNC(=O)c1c(C(F)(F)F)ccc(C(=O)Nc2nnnn2C)c1Cl` [Example 1-136], the pest or weed control at 80 g/ha came to 80% in the test on AVEFA (Avena fatua, 504 h); 100% with VIOTR [1] (Viola tricolor, 504 h, dosage 80 g/ha); 90% with LOLRI (Lolium rigidum, 504 h); 100% in the test on AMARE [2] (Amaranthus retroflexus, 504 h, 80 g/ha, scored visually after 3 weeks vs untreated controls, 100% = plants have died, 0% = like control plants); 90% in the test with ALOMY [5] (Alopecurus myosuroides, 504 h); 80% with PHBPU [6] (Ipomoea purpurea, 504 h). The pest or weed control at 80 g/ha stood at 100% in the test on ABUTH (Abutilon theophrasti, 504 h, 80 g/ha, scored visually after 3 weeks vs untreated controls (100% = plants have died, 0% = like control plants)); 100% in the test with DIGSA (Digitaria sanguinalis, 504 h, dosage 80 g/ha); 100% with MATIN [9] (Tripleurospermum inodorum, 504 h, dosage 80 g/ha); 90% in the test on VERPE [10]; 80% with SETVI [12] (Setaria viridis, 504 h, dosage 80 g/ha); 90% with ECHCG [13] (Echinochloa crus-galli, 504 h). Moreover, the pest or weed control at 20 g/ha amounted to 90% with VIOTR [1] (Viola tricolor, 504 h, dosage 20 g/ha); 100% in the test on AMARE [2] (Amaranthus retroflexus, 504 h, 20 g/ha, scored visually after 3 weeks vs untreated controls, 100% = plants have died, 0% = like control plants); 80% in the test on SETVI [3] (Setaria viridis, 504 h, dosage 20 g/ha); 90% with AMARE [4] (Amaranthus retroflexus, 504 h); 90% in the test with ABUTH (Abutilon theophrasti, 504 h, dosage 20 g/ha, scored visually after 3 weeks vs untreated controls, 100% = plants have died, 0% = like control plants, read-out: Pre-emergence action against ABUTH (herbicidal activity in percent)); 100% with DIGSA (Digitaria sanguinalis, 504 h, dosage 20 g/ha). Also, the pest or weed control at 20 g/ha with ALOMY [7] (Alopecurus myosuroides, 504 h, dosage 20 g/ha) came out at 90%; in the test on ECHCG [8] (Echinochloa crus-galli, 504 h, dosage 20 g/ha), 90%; in the test with MATIN [9] (Tripleurospermum inodorum, 504 h, dosage 20 g/ha), 90%; in the test on MATIN [11] (Tripleurospermum inodorum, 504 h), 80%. Further, the pest or weed control at 5 g/ha with ALOMY [7] (Alopecurus myosuroides, 504 h, dosage 5 g/ha) was found to be 80%; in the test with ECHCG [8] (Echinochloa crus-galli, 504 h, dosage 5 g/ha), 80%.

Regarding `CCn1nnnc1NC(=O)c1ccc(C(F)(F)F)c(C(=O)NCC(F)(F)F)c1Cl` [Example 2-133], the “Pre-emergence action against AVEFA in %” value in the test with AVEFA is given as 90%. For the same molecule, the “Pre-emergence action against VIOTR in %” value with VIOTR [1] (dosage 80 g/ha) is given as 90%. Moreover, the “Pre-emergence action against LOLRI in %” value in the test with LOLRI was 80%. The “Pre-emergence action against AMARE in %” value with AMARE [2] (20 g/ha, scored visually after 3 weeks vs untreated controls, 100% = plants have died, 0% = like control plants) came to 90%; in the test with AMARE [2] (setting [17]) it was 100%. Moreover, the “Post-emergence action against SETVI in %” value in the test with SETVI [3] (dosage 5 g/ha) turned out to be 80%; in the test on SETVI [3] (dosage 20 g/ha), 90%. In addition, the “Post-emergence action at 20 g/ha against AMARE in %” value with AMARE [4] stood at 90%. The “Post-emergence action against PHBPU in %” value in the test on PHBPU [14] came out at 80%. Further, in the test with ALOMY [5], the “Pre-emergence action against ALOMY (herbicidal activity)” value was 90%. In the test with PHBPU [6], the “Pre-emergence action against PHBPU in %” value came to 80%. In addition, the “Pre-emergence action against ABUTH (herbicidal activity)” value with ABUTH (setting [17]) is 100%. In addition, the “Pre-emergence action against DIGSA in %” value with DIGSA (dosage 80 g/ha) turned out to be 90%. Also, in the test on ALOMY [7] (dosage 20 g/ha), the “Post-emergence action against ALOMY in %” value was 80%. In the test with ECHCG [8] (dosage 20 g/ha), the “Post-emergence action against ECHCG in %” value was determined as 80%. Also, the “Post-emergence action against VIOTR in %” value in the test with VIOTR [15] was 80%. Further, the entries for the “Pre-emergence action against MATIN in %” value with MATIN [9] (dosage 20 g/ha) and in the test on MATIN [9] (dosage 80 g/ha) were 90% and 100%, respectively. In addition, in the test with MATIN [11], the “Post-emergence action against MATIN in %” value was 90%. Also, the “Pre-emergence action against SETVI in %” value with SETVI [12] (dosage 20 g/ha) and in the test with SETVI [12] (dosage 80 g/ha) was 100% each time. Besides, in the test on ECHCG [13], the “Pre-emergence action against ECHCG in %” value turned out to be 100%. Further, the “Post-emergence action against VERPE in %” value in the test on VERPE [16] (5 g/ha) and with VERPE [16] (20 g/ha) was 80% each time.
